Source: patent publication EP4609848A1 (I-D Actives, S.L., priority 2024, dated 2025)
In brackets after ≈: the same amount, converted by molar mass.

Assay: Phase solubility study with cyclodextrins (β-CDs, HP-β-CDs) in galega water, spectrophotometric titration
Assay type: physicochemical
Description: The inventors performed solubility studies in an aqueous media in the absence and presence of solvents and in the presence of increasing concentrations of different types of CDs (β-CDs and HP-β-CDs).
According to the traditional interpretation, this study was carried out using the solubility method.
On the other hand, further sea buckthorn oil solubilization tests were performed with galega water solutions containing 80 mM HP-β-cyclodextrin and another solution with 10 mM β-cyclodextrin.

`Oc1ccc(C=Cc2cc(O)cc(O)c2)cc1` [Resveratrol, resveratrol] gave a solubility thermodynamic at 60 min (25 °C, water, thermodynamic from solid) of 40 µg/mL (≈ 175 µM) and a solubility of resveratrol (in absence of CDs, galega water) of 25 µg/mL.
